Reference: US20180002288A1, “USE OF PICOLINAMIDES AS FUNGICIDES” (DOW AGROSCIENCES LLC, priority 2014, published 2018)
Like-named read-outs stand apart in the source and are kept apart here.

How the values were obtained:
[1] = system: Puccinia triticina; assay: Wheat Brown Rust fungicidal activity (PUCCRT); type: in vivo; conditions: for pest or weed control at 100 ppm: wheat, high volume; for pest or weed control at 121.5 g/ha: Low Volume Cereal Activity at 121.5 g/Ha
[2] = system: Zymoseptoria tritici; assay: Leaf Blotch of Wheat fungicidal activity (SEPTTR); type: in vivo; conditions: for pest or weed control at 100 ppm: wheat, high volume; for pest or weed control at 121.5 g/ha: Low Volume Cereal Activity at 121.5 g/Ha
[3] = 24 h, 1 Day Protectant, read-out: PUCCRT 1DP % Control rating
[4] = 72 h, 3 Day Curative, read-out: PUCCRT 3DC % Control rating
[5] = 24 h, 1 Day Protectant, read-out: SEPTTR 1DP % Control rating
[6] = 72 h, 3 Day Curative, read-out: SEPTTR 3DC % Control rating
[7] = 24 h, 1 Day Protectant, read-out: PUCCRT 1DP (Wheat Brown Rust, 1 Day Protectant)
[8] = 72 h, 3 Day Curative, read-out: PUCCRT 3DC (Wheat Brown Rust, 3 Day Curative)
[9] = 24 h, 1 Day Protectant, read-out: SEPTTR 1DP (Wheat Leaf Blotch, 1 Day Protectant)
[10] = 72 h, 3 Day Curative, read-out: SEPTTR 3DC (Wheat Leaf Blotch, 3 Day Curative)

SMILES | pest or weed control at 100 ppm [1, 3] | pest or weed control at 100 ppm [1, 4] | pest or weed control at 100 ppm [2, 5] | pest or weed control at 100 ppm [2, 6] | pest or weed control at 121.5 g/ha [1, 7] | pest or weed control at 121.5 g/ha [1, 8] | pest or weed control at 121.5 g/ha [2, 9] | pest or weed control at 121.5 g/ha [2, 10]
COc1ccnc(C(=O)N[C@H](C)C(=O)O[C@H](C)[C@@H](Oc2ccccc2)c2ccccc2)c1O [Example 116] | < 0% | < 0% | < 0% | < 80% | – | – | – | –
COc1ccnc(C(=O)N[C@@H](C)C(=O)O[C@@H](C)[C@H](OCC2CC2)c2cccc(-c3ccccc3)c2)c1O [Example 131] | < 80% | < 80% | < 0% | < 80% | – | – | – | –
CC[C@H](NC(=O)c1nccc(OC)c1OCOC(C)=O)C(=O)O[C@@H](C)[C@H](Oc1cc(F)cc(Cl)c1)c1ccccc1 [Example 208] | – | – | – | – | > 80% | < 80% | > 80% | > 80%
CCCO[C@@H](c1ccccc1)[C@H](C)OC(=O)[C@H](C)NC(=O)c1nccc(OC)c1O [Example 138] | > 80% | > 80% | < 80% | < 80% | – | – | – | –
COc1ccnc(C(=O)N[C@@H](C)C(=O)O[C@@H](C)[C@H](Oc2ccc(C)cc2)c2ccccc2)c1O [Example 151] | > 80% | > 80% | > 80% | < 80% | – | – | – | –
COc1ccnc(C(=O)N[C@@H](C)C(=O)O[C@@H](C)[C@H](Oc2ccc(Cl)cc2Cl)c2ccccc2)c1OC(C)=O [Example 200] | – | – | – | – | > 80% | < 80% | > 80% | > 80%
CC[C@H](NC(=O)c1nccc(OC)c1OCOC(C)=O)C(=O)O[C@@H](C)[C@H](Oc1cc(F)ccc1F)c1ccccc1 [Example 193] | – | – | – | – | > 80% | > 80% | < 80% | < 0%
COc1ccnc(C(=O)N[C@@H](C)C(=O)O[C@@H](C)[C@H](Oc2ccc(C)cc2Cl)c2ccccc2)c1OC(C)=O [Example 243] | – | – | – | – | > 80% | < 80% | > 80% | > 80%
COc1ccnc(C(=O)N[C@@H](C)C(=O)O[C@@H](C)[C@@H](Oc2ccccc2)c2ccccc2)c1OC(C)=O [Example 217] | – | – | – | – | > 80% | < 80% | > 80% | > 80%
COc1ccnc(C(=O)N[C@@H](C)C(=O)O[C@@H](C)C(Oc2ccccc2)c2nccs2)c1OCOC(C)=O (stereo partly shown) [Example 213] | – | – | – | – | > 80% | > 80% | < 0% | < 80%
COc1ccnc(C(=O)N[C@@H](C)C(=O)O[C@@H](C)[C@H](Oc2cccc(F)c2)c2cccc(-c3ccccc3)c2)c1OCOC(C)=O [Example 221] | – | – | – | – | > 80% | < 80% | > 80% | < 80%
COc1ccnc(C(=O)N[C@@H](C)C(=O)O[C@@H](C)[C@H](Oc2ccc(C)cc2Cl)c2ccc(F)cc2)c1O [Example 150] | > 80% | > 80% | > 80% | < 80% | – | – | – | –
CCCO[C@@H](c1ccccc1)[C@H](C)OC(=O)[C@H](C)NC(=O)c1nccc(OC)c1OC(C)=O [Example 227] | – | – | – | – | > 80% | > 80% | < 80% | > 80%
COc1cc(F)ccc1[C@@H](Oc1ccc(C)cc1)[C@H](C)OC(=O)[C@H](C)NC(=O)c1nccc(OC)c1O [Example 173] | > 80% | > 80% | > 80% | > 80% | – | – | – | –
COc1ccnc(C(=O)N[C@@H](C)C(=O)O[C@@H](C)[C@H](Oc2ccccc2)c2nccs2)c1O [Example 132] | > 80% | < 80% | < 80% | < 0% | – | – | – | –
COc1ccnc(C(=O)N[C@@H](C)C(=O)O[C@@H](C)[C@@H](Oc2ccccc2)c2cccs2)c1O [Example 129] | < 80% | < 80% | > 80% | < 80% | – | – | – | –
COc1ccnc(C(=O)N[C@@H](C)C(=O)O[C@@H](C)[C@H](Oc2cccc(F)c2)c2cccc(-c3ccccc3)c2)c1O [Example 133] | < 80% | < 0% | < 0% | < 0% | – | – | – | –

SMILES | pest or weed control at 100 ppm [1, 3] | pest or weed control at 100 ppm [1, 4] | pest or weed control at 100 ppm [2, 5] | pest or weed control at 100 ppm [2, 6] | pest or weed control at 121.5 g/ha [1, 7] | pest or weed control at 121.5 g/ha [1, 8] | pest or weed control at 121.5 g/ha [2, 9] | pest or weed control at 121.5 g/ha [2, 10]
COc1ccnc(C(=O)N[C@@H](C)C(=O)O[C@@H](C)[C@H](Oc2ccccc2)c2ccc(F)cc2OCC(F)F)c1O [Example 176] | > 80% | > 80% | > 80% | > 80% | – | – | – | –
COc1ccnc(C(=O)N[C@@H](C)C(=O)O[C@@H](C)[C@H](Oc2ccc(Cl)cc2)c2ccccc2)c1OCOC(C)=O [Example 201] | – | – | – | – | > 80% | > 80% | > 80% | > 80%
COc1ccnc(C(=O)N[C@@H](C)C(=O)O[C@@H](C)[C@H](Oc2ccccc2)c2cccc(-c3ccccc3)c2)c1OCOC(C)=O [Example 240] | – | – | – | – | > 80% | < 80% | > 80% | > 80%
COc1ccnc(C(=O)N[C@@H](C)C(=O)O[C@@H](C)[C@H](Oc2ccc(F)cc2)c2ccc(F)cc2)c1OCOC(C)=O [Example 254] | – | – | – | – | > 80% | > 80% | > 80% | > 80%
COc1ccnc(C(=O)N[C@@H](C)C(=O)O[C@@H](C)[C@H](Oc2ccc(C)cc2Cl)c2ccccc2)c1OCOC(C)=O [Example 244] | – | – | – | – | > 80% | < 80% | > 80% | > 80%
COc1ccnc(C(=O)N[C@@H](C)C(=O)O[C@@H](C)[C@@H](Oc2ccccc2)c2ccccc2)c1OC(=O)C(C)C [Example 218] | – | – | – | – | < 0% | < 0% | > 80% | < 80%
COc1ccnc(C(=O)N[C@@H](C)C(=O)O[C@@H](C)[C@H](Oc2ccc(F)cc2)c2ccc(C)cc2)c1OCOC(C)=O [Example 253] | – | – | – | – | > 80% | > 80% | > 80% | > 80%
COc1ccnc(C(=O)N[C@@H](C)C(=O)O[C@@H](C)[C@H](Oc2ccccc2)c2ccc(-c3ccccc3)cc2)c1OCOC(C)=O [Example 239] | – | – | – | – | > 80% | < 80% | > 80% | > 80%
COc1ccnc(C(=O)N[C@@H](C)C(=O)O[C@@H](C)[C@H](Oc2ccc(Cl)cc2)c2ccccc2)c1O [Example 119] | > 80% | > 80% | < 80% | > 80% | – | – | – | –
COc1ccnc(C(=O)N[C@@H](C)C(=O)O[C@@H](C)[C@@H](OCC2CC2)c2ccccc2)c1OC(C)=O [Example 232] | – | – | – | – | > 80% | > 80% | < 0% | > 80%
COc1ccnc(C(=O)N[C@@H](C)C(=O)O[C@@H](C)[C@H](Oc2ccccc2)c2ccc(F)cc2)c1O [Example 148] | > 80% | < 80% | < 80% | > 80% | – | – | – | –
COc1ccnc(C(=O)N[C@@H](C)C(=O)O[C@@H](C)[C@@H](OC)c2ccccc2)c1OC(C)=O [Example 229] | – | – | – | – | < 0% | > 80% | < 0% | < 80%
COc1cc(F)ccc1[C@@H](Oc1ccc(C)cc1Cl)[C@H](C)OC(=O)[C@H](C)NC(=O)c1nccc(OC)c1O [Example 169] | > 80% | < 80% | > 80% | > 80% | – | – | – | –
COc1ccnc(C(=O)N[C@@H](C)C(=O)O[C@@H](C)C(Oc2ccccc2)c2nccs2)c1OC(C)=O (stereo partly shown) [Example 212] | – | – | – | – | < 80% | > 80% | < 0% | < 80%
CCCO[C@H](c1ccccc1)[C@H](C)OC(=O)[C@H](C)NC(=O)c1nccc(OC)c1O [Example 137] | > 80% | > 80% | > 80% | > 80% | – | – | – | –
COc1ccnc(C(=O)N[C@@H](C)C(=O)O[C@@H](C)[C@H](Oc2cccc(F)c2)c2ccccc2)c1O [Example 127] | > 80% | > 80% | > 80% | > 80% | – | – | – | –
COc1ccnc(C(=O)N[C@@H](C)C(=O)O[C@@H](C)[C@H](Oc2ccccc2)c2ccc(C)cc2)c1O [Example 154] | > 80% | > 80% | > 80% | > 80% | – | – | – | –
